# Results: patent publication US12077503B2, “Substituted cyclic amides and their use as herbicides” (FMC CORPORATION, priority 2015, dated 2024)
# Key:
# Format in all cases: in vivo
# [1] = test system: lambsquarters (Chenopodium album); assay: Test C postemergence; conditions: scale 0 to 100, 0 no effect, 100 complete control
# Outline: (§1)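 Preemergence application to seeds in loam/sand soil, or foliar (postemergence) application to plants 2–18 cm tall in peat moss/vermiculite medium; surfactant-containing non-phytotoxic solvent vehicle; greenhouse. Visual injury vs controls at 13–15 d; 0 = no effect, 100 = complete control.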
# [2] = test system: ragweed (common ragweed, Ambrosia elatior); assay: Test C postemergence; conditions: scale 0 to 100, 0 no effect, 100 complete control
# Outline: as §1
# [3] = test system: wheat (winter wheat, Triticum aestivum); assay: Test C postemergence; conditions: scale 0 to 100, 0 no effect, 100 complete control
# Outline: as §1
# [4] = test system: barnyardgrass (Echinochloa crus-galli); assay: Test C postemergence; conditions: scale 0 to 100, 0 no effect, 100 complete control
# Outline: as §1
# [5] = test system: Panicum, fall (fall Panicum, Panicum dichotomiflorum); assay: Test E preemergence; conditions: scale 0 to 100
# From the text: (§2) Seeds of plant species selected from corn (Zea mays), soybean (Glycine max), velvetleaf (Abutilon theophrasti), lambsquarters (Chenopodium album), poinsettia, wild (wild poinsettia, Euphorbia heterophylla), pigweed, palmer (palmer pigweed, Amaranthus palmeri), waterhemp (common waterhemp, Amaranthus rudis), surinam grass (Brachiaria decumbens), crabgrass, large (large crabgrass, Digitaria sangumnalis), crabgrass, Brazil (Brazilian crabgrass, Digitaria horizontalis), Panicum, fall (fall Panicum, Panicum dichotomiflorum), foxtail, giant (giant foxtail, Setaria faberii), foxtail, green (green foxtail, Setaria viridis), goosegrass (Eleusine indica), johnsongrass (Sorghum halepense), ragweed (common ragweed, Ambrosia elatior), barnyardgrass (Echinochloa crus-galli), sandbur (southern sandbur, Cenchrus echinatus), arrowleaf Sida (Sida rhombifolia), ryegrass, Italian (Italian ryegrass, Lolium multiflorum), dayflower, VA (Virginia dayflower, Commelina virginica), field bindweed (Convolvulus arvensis), morningglory (Ipomoea coccinea), nightshade (eastern black nightshade, Solanum ptycanthum), Kochia (Kochia scoparia), nutsedge, yellow (yellow nutsedge, Cyperus esculentus), horseweed (Conyza canadensis), and beggarticks (hairy beggarticks, Bidens pilosa), were planted into a silt loam soil and treated preemergence with test chemicals formulated in a non-phytotoxic solvent mixture which included a surfactant.
# (§3) At the same time, plants selected from these crop and weed species were planted in pots containing Sunshine Redi-Earth planting medium comprising spaghnum peat moss, vermiculite, starter nutrients and dolomitic limestone and treated with postemergence applications of a test chemical formulated in the same manner. Plants ranged in height from 2 to 18 cm (1- to 4-leaf stage) for postemergence treatments. Treated plants and controls were maintained in a greenhouse for 14 to 21 d, after which time all species were compared to controls and visually evaluated. Plant response ratings, summarized in Table E, are based on a scale of 0 to 100 where 0 is no effect and 100 is complete control. A dash (-) response means no test result.
# [6] = test system: field bindweed (Convolvulus arvensis); assay: Test E preemergence; conditions: scale 0 to 100
# From the text: as §2, §3
# [7] = test system: soybean (Glycine max); assay: Test E preemergence; conditions: scale 0 to 100
# From the text: as §2, §3
# [8] = test system: horseweed (Conyza canadensis); assay: Test E preemergence; conditions: scale 0 to 100
# From the text: as §2, §3
# [9] = test system: morningglory (Ipomoea coccinea); assay: Test E preemergence; conditions: scale 0 to 100
# From the text: as §2, §3
# [10] = test system: nutsedge, yellow (yellow nutsedge, Cyperus esculentus); assay: Test E preemergence; conditions: scale 0 to 100
# From the text: as §2, §3
# [11] = test system: surinam grass (Brachiaria decumbens); assay: Test E preemergence; conditions: scale 0 to 100
# From the text: as §2, §3
# [12] = test system: poinsettia, wild (wild poinsettia, Euphorbia heterophylla); assay: Test E preemergence; conditions: scale 0 to 100
# From the text: as §2, §3
# [13] = test system: beggarticks (hairy beggarticks, Bidens pilosa); assay: Test E preemergence; conditions: scale 0 to 100
# From the text: as §2, §3
# [14] = test system: johnsongrass (Sorghum halepense); assay: Test E preemergence; conditions: scale 0 to 100
# From the text: as §2, §3
# [15] = test system: barnyardgrass (Echinochloa crus-galli); assay: Test E preemergence; conditions: scale 0 to 100
# From the text: as §2, §3
smiles,measurement,setting,value
CN1CC(c2ccc(F)c(F)c2)C(C(=O)Nc2ccccc2S(C)(=O)=O)C1=O (stereo not drawn) [Compound 640],"Plant response rating, Lambsquarters",[1]; 31 g ai/ha,30
same,"Plant response rating, Lambsquarters",[1]; 62 g ai/ha,20
same,"Plant response rating, Lambsquarters",[1]; 125 g ai/ha,70
same,"Plant response rating, Lambsquarters",[1]; 250 g ai/ha,40
same,"Plant response rating, Ragweed",[2]; 31 g ai/ha,0
same,"Plant response rating, Ragweed",[2]; 62 g ai/ha,25
same,"Plant response rating, Ragweed",[2]; 125 g ai/ha,30
same,"Plant response rating, Ragweed",[2]; 250 g ai/ha,55
same,"Plant response rating, Wheat",[3]; 31 g ai/ha,0
same,"Plant response rating, Wheat",[3]; 62 g ai/ha,0
same,"Plant response rating, Wheat",[3]; 125 g ai/ha,0
same,"Plant response rating, Wheat",[3]; 250 g ai/ha,0
same,"Plant response rating, Barnyardgrass",[4]; 31 g ai/ha,0
same,"Plant response rating, Barnyardgrass",[4]; 62 g ai/ha,0
same,"Plant response rating, Barnyardgrass",[4]; 125 g ai/ha,10
same,"Plant response rating, Barnyardgrass",[4]; 250 g ai/ha,10
CN1CC(c2cccc(OC(F)(F)C(F)F)c2)C(C(=O)Nc2cccc(F)c2F)C1=O (stereo not drawn) [Compound 392],"Plant response rating: Panicum, Fall",[5]; 31 g ai/ha,95
same,"Plant response rating: Panicum, Fall",[5]; 62 g ai/ha,98
same,"Plant response rating: Panicum, Fall",[5]; 125 g ai/ha,98
same,"Plant response rating: Panicum, Fall",[5]; 250 g ai/ha,98
same,Plant response rating: Field Bindweed,[6]; 31 g ai/ha,0
same,Plant response rating: Field Bindweed,[6]; 62 g ai/ha,0
same,Plant response rating: Field Bindweed,[6]; 125 g ai/ha,35
same,Plant response rating: Field Bindweed,[6]; 250 g ai/ha,70
same,Plant response rating: Soybean,[7]; 31 g ai/ha,0
same,Plant response rating: Soybean,[7]; 62 g ai/ha,0
same,Plant response rating: Soybean,[7]; 125 g ai/ha,20
same,Plant response rating: Soybean,[7]; 250 g ai/ha,25
same,Plant response rating: Horseweed,[8]; 31 g ai/ha,0
same,Plant response rating: Horseweed,[8]; 62 g ai/ha,0
same,Plant response rating: Horseweed,[8]; 125 g ai/ha,98
same,Plant response rating: Horseweed,[8]; 250 g ai/ha,100
same,Plant response rating: Morningglory,[9]; 31 g ai/ha,0
same,Plant response rating: Morningglory,[9]; 62 g ai/ha,0
same,Plant response rating: Morningglory,[9]; 125 g ai/ha,0
same,Plant response rating: Morningglory,[9]; 250 g ai/ha,0
same,"Plant response rating: Nutsedge, Yellow",[10]; 31 g ai/ha,0
same,"Plant response rating: Nutsedge, Yellow",[10]; 62 g ai/ha,0
same,"Plant response rating: Nutsedge, Yellow",[10]; 125 g ai/ha,0
same,"Plant response rating: Nutsedge, Yellow",[10]; 250 g ai/ha,0
same,Plant response rating: Surinam Grass,[11]; 31 g ai/ha,0
same,Plant response rating: Surinam Grass,[11]; 62 g ai/ha,0
same,Plant response rating: Surinam Grass,[11]; 125 g ai/ha,15
same,Plant response rating: Surinam Grass,[11]; 250 g ai/ha,30
same,"Plant response rating: Poinsettia, Wild",[12]; 31 g ai/ha,0
same,"Plant response rating: Poinsettia, Wild",[12]; 62 g ai/ha,0
same,"Plant response rating: Poinsettia, Wild",[12]; 125 g ai/ha,35
same,"Plant response rating: Poinsettia, Wild",[12]; 250 g ai/ha,20
same,Plant response rating: Beggarticks,[13]; 31 g ai/ha,0
same,Plant response rating: Beggarticks,[13]; 62 g ai/ha,0
same,Plant response rating: Beggarticks,[13]; 125 g ai/ha,0
same,Plant response rating: Beggarticks,[13]; 250 g ai/ha,0
same,Plant response rating: Johnsongrass,[14]; 31 g ai/ha,25
same,Plant response rating: Johnsongrass,[14]; 62 g ai/ha,30
same,Plant response rating: Johnsongrass,[14]; 125 g ai/ha,50
same,Plant response rating: Johnsongrass,[14]; 250 g ai/ha,95
same,Plant response rating: Barnyardgrass,[15]; 31 g ai/ha,85
same,Plant response rating: Barnyardgrass,[15]; 62 g ai/ha,70
same,Plant response rating: Barnyardgrass,[15]; 125 g ai/ha,90
same,Plant response rating: Barnyardgrass,[15]; 250 g ai/ha,95
